Experimental data reported in paper PMC8165160, “Substrate Specificities and Inhibition Pattern of the Solute Carrier Family 10 Members NTCP, ASBT and SOAT” (Frontiers in Molecular Biosciences, 2021).
Where a name gives a salt, the structure may show the parent alone. Read-outs that look alike come from different tables or passages of the source.

Assays:
SOAT [1] = target: T1, SOAT (Homo sapiens, UniProt Q3KNW5); set-up: method as in Geyer et al. (2007); settings: uptake via SOAT, same SOAT-HEK293 cell line; ref Geyer et al. (2007); cited from earlier work
T1 construct: The full-length open reading frames of NTCP, ASBT, and SOAT were cloned; expressed in transfected cells; host or cells: Flp-In T-REX HEK293 (SOAT-HEK293), tetracycline-induced
T1 sequence (Q3KNW5 1-377): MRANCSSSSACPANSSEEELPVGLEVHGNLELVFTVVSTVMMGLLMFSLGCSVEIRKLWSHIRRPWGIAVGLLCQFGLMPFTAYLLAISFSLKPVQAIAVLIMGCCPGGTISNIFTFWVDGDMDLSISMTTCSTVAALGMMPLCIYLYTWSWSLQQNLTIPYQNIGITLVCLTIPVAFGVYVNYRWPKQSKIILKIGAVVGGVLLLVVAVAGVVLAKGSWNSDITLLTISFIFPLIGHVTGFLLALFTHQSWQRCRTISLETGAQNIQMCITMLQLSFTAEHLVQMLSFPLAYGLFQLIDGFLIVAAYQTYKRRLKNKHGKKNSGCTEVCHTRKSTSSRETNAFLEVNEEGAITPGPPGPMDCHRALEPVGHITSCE

SOAT [2] = target: T1, SOAT; experiment: Transport kinetics (concentration-dependent uptake) in SOAT-HEK293 cells; format: cell-based; settings: uptake via SOAT, 1 min, 37°C
Procedure: Cells were washed three times with phosphate buffered saline (PBS) (137 mM NaCl, 2.7 mM KCl, 1.5 mM KH2PO4, 7.3 mM Na2HPO4, pH 7.4, 37°C). Afterward, cells were preincubated at 37°C with sodium transport buffer (containing 142.9 mM NaCl, 4.7 mM KCl, 1.2 mM MgSO4, 1.2 mM KH2PO4, 1.8 mM CaCl2, and 20 mM HEPES (all chemicals from Sigma-Aldrich), adjusted to pH 7.4), or with choline transport buffer (equimolar substitution of sodium chloride with choline chloride). Uptake experiments were initiated by replacing the preincubation buffer by 500 μL transport buffer containing the radiolabeled test compound and were performed at 37°C. Transport was terminated by removing the transport buffer and washing five-times with ice-cold PBS. Cell monolayers were lysed in 1 N NaOH with 0.1% SDS and the cell-associated radioactivity was determined by liquid scintillation counting. Protein content of individual wells was determined by Lowry assay as reported before ([Geyer et al., 2007]).
FIGURE 2 NTCP, ASBT, and SOAT transport kinetics. Concentration-dependent uptake was analyzed in NTCP-HEK293, ASBT-HEK293, and SOAT-HEK293 cells for the indicated substrates at increasing substrate concentrations. […] Uptake was analyzed for 1 min at 37°C. Afterward, the medium was removed and each cell monolayer was washed and processed to determine the protein content and cell-associated radioactivity. […]

SMILES	Apparent K m (SOAT [1]) [µM]	V max (SOAT [1]) [pmol/mg protein/min]	Apparent K m (SOAT [2]) [µM]	V max (SOAT [2]) [pmol/mg protein/min]
C[C@]12CC[C@H](OS(=O)(=O)O)CC1=CC[C@@H]1[C@@H]2CC[C@]2(C)C(=O)CC[C@@H]12 [DHEAS, Dehydroepiandrosterone sulfate]	28.7 ± 3.9	1899 ± 81		
C[C@H](CCC(=O)NCCS(=O)(=O)O)[C@H]1CC[C@H]2[C@@H]3CC[C@@H]4C[C@H](O)CC[C@]4(C)[C@H]3CC[C@]12C [Taurolithocholic acid]			19.3 ± 6.8	617 ± 57
